Several values for one entry are separate records, joined by “and”; a condition that tells them apart may be missing. Identical values can stand only once.
System: BDF1 mice, Adenocarcinoma 755 s.c., tumor weight T/C
Assay: NCI In Vivo Anticancer Drug Screen. Data for tumor model Adenocarcinoma 755 (subcutaneous) in B6D2F1 (BDF1) mice
Conditions: endpoint: mean tumor weight, higher = larger tumour
Protocol: The antitumor activity of compounds was measured in mice bearing transplantable tumors. Survival or tumor size were measured and the results are expressed as the measurement made in the treated group (T) divided by the measurement made in the vehicle treated control group (C). The tumor model used in this assay is Adenocarcinoma 755 (subcutaneous) in B6D2F1 (BDF1) mice

[1] = dose: 31.0 mg/kg/injection, schedule: Q01DX011 (ip), vehicle: methylcellulose (MC)
[2] = dose: 62.0 mg/kg/injection, schedule: Q01DX011 (ip), vehicle: methylcellulose (MC)
[3] = dose: 125.0 mg/kg/injection, schedule: Q01DX011 (ip), vehicle: methylcellulose (MC)
[4] = dose: 250.0 mg/kg/injection, schedule: Q01DX011 (ip), vehicle: methylcellulose (MC)
[5] = dose: 50.0 mg/kg/injection, schedule: Q01DX011 (ip), vehicle: carboxymethylcellulose (CMC)

SMILES: N#CCCNC(=O)Nc1ccccc1
- T/C (dose: 15.0 mg/kg/injection, schedule: Q01DX011 (ip), vehicle: methylcellulose (MC)): 63 % of control
- T/C [1]: 74 % of control
- T/C [2]: 58 % of control
- T/C [3]: 101 % of control
- T/C [4]: 93 % of control

SMILES: CSc1cc(NCc2ccccc2)nc(N)n1
- T/C (dose: 25.0 mg/kg/injection, schedule: Q01DX011 (ip), vehicle: methylcellulose (MC)): 85 % of control
- T/C (dose: 75.0 mg/kg/injection, schedule: Q01DX011 (ip), vehicle: methylcellulose (MC)): 65 % of control

SMILES: CCCCNC(=O)c1n[se]nc1NC(N)=O
- T/C (dose: 4.0 mg/kg/injection, schedule: Q01DX011 (ip), vehicle: carboxymethylcellulose (CMC)): 94 % of control
- T/C (dose: 8.0 mg/kg/injection, schedule: Q01DX011 (ip), vehicle: carboxymethylcellulose (CMC)): 91 % of control
- T/C (dose: 16.0 mg/kg/injection, schedule: Q01DX011 (ip), vehicle: carboxymethylcellulose (CMC)): 61 % of control
- T/C (dose: 37.5 mg/kg/injection, schedule: Q01DX011 (ip), vehicle: carboxymethylcellulose (CMC)): 166 % of control
- T/C [5]: 119 % of control

SMILES: [Br][Hg][CH2]C1COC([CH2][Hg][Br])CO1 (stereo not given)
- T/C (dose: 6.0 mg/kg/injection, schedule: Q01DX011 (ip), vehicle: carboxymethylcellulose (CMC)): 101 % of control
- T/C (dose: 12.0 mg/kg/injection, schedule: Q01DX011 (ip), vehicle: carboxymethylcellulose (CMC)): 60 % of control
- T/C [5]: 27 % of control

SMILES: c1nc(SC2CCCC2)c2[nH]cnc2n1
- T/C (dose: 0.62 mg/kg/injection, schedule: Q01DX011 (ip), vehicle: carboxymethylcellulose (CMC)): 76 % of control
- T/C (dose: 0.62 mg/kg/injection, schedule: Q01DX011 (oral), vehicle: carboxymethylcellulose (CMC)): 93 % of control
- T/C (dose: 1.25 mg/kg/injection, schedule: Q01DX011 (ip), vehicle: carboxymethylcellulose (CMC)): 66 % of control
- T/C (dose: 2.5 mg/kg/injection, schedule: Q01DX011 (ip), vehicle: carboxymethylcellulose (CMC)): 45 % of control
- T/C (dose: 2.5 mg/kg/injection, schedule: Q01DX011 (oral), vehicle: carboxymethylcellulose (CMC)): 62 % of control
- T/C (dose: 5.0 mg/kg/injection, schedule: Q01DX011 (oral), vehicle: carboxymethylcellulose (CMC)): 6 % of control
- T/C (dose: 5.2 mg/kg/injection, schedule: Q01DX011 (ip), vehicle: carboxymethylcellulose (CMC)): 59 % of control
- T/C (dose: 10.0 mg/kg/injection, schedule: Q01DX011 (ip), vehicle: carboxymethylcellulose (CMC)): 6 % of control
- T/C (dose: 10.0 mg/kg/injection, schedule: Q01DX011 (oral), vehicle: carboxymethylcellulose (CMC)): 3 % of control
- T/C (dose: 10.5 mg/kg/injection, schedule: Q01DX011 (ip), vehicle: carboxymethylcellulose (CMC)): 20 % of control
- T/C (dose: 21.0 mg/kg/injection, schedule: Q01DX011 (ip), vehicle: carboxymethylcellulose (CMC)): 6 % of control and 17 % of control
- T/C (dose: 21.0 mg/kg/injection, schedule: Q01DX011 (oral), vehicle: carboxymethylcellulose (CMC)): 7 % of control
- T/C (dose: 42.0 mg/kg/injection, schedule: Q01DX011 (ip), vehicle: carboxymethylcellulose (CMC)): 4 % of control
- T/C (dose: 42.5 mg/kg/injection, schedule: Q01DX011 (ip), vehicle: carboxymethylcellulose (CMC)): 1 % of control
- T/C (dose: 84.0 mg/kg/injection, schedule: Q01DX011 (oral), vehicle: carboxymethylcellulose (CMC)): 5 % of control
- T/C (dose: 85.0 mg/kg/injection, schedule: Q01DX011 (ip), vehicle: carboxymethylcellulose (CMC)): 1 % of control and 2 % of control
- T/C (dose: 85.0 mg/kg/injection, schedule: Q01DX011 (oral), vehicle: carboxymethylcellulose (CMC)): 2 % of control
- T/C (dose: 87.0 mg/kg/injection, schedule: Q01DX001 (ip), vehicle: carboxymethylcellulose (CMC)): 43 % of control
- T/C (dose: 174.0 mg/kg/injection, schedule: Q01DX001 (ip), vehicle: carboxymethylcellulose (CMC)): 44 % of control
- T/C (dose: 347.0 mg/kg/injection, schedule: Q01DX001 (ip), vehicle: carboxymethylcellulose (CMC)): 25 % of control
- T/C (dose: 694.0 mg/kg/injection, schedule: Q01DX001 (ip), vehicle: carboxymethylcellulose (CMC)): 24 % of control

SMILES: CN(C)N=Nc1ccc(CCCC(=O)NN)cc1
- T/C (dose: 31.0 mg/kg/injection, schedule: Q01DX011 (ip), vehicle: carboxymethylcellulose (CMC)): 60 % of control
- T/C (dose: 62.0 mg/kg/injection, schedule: Q01DX011 (ip), vehicle: carboxymethylcellulose (CMC)): 10 % of control

SMILES: C[C@H]1C(=O)O[C@@H]2CCN3CC=C(COC(=O)[C@](C)(O)[C@@]1(C)O)[C@H]23
- T/C (dose: 12.5 mg/kg/injection, schedule: Q#A X022 (ip), vehicle: carboxymethylcellulose (CMC)): 70 % of control
- T/C (dose: 12.5 mg/kg/injection, schedule: Q#A X022 (oral), vehicle: carboxymethylcellulose (CMC)): 65 % of control
- T/C (dose: 22.5 mg/kg/injection, schedule: Q01DX011 (ip), vehicle: carboxymethylcellulose (CMC)): 45 % of control
- T/C (dose: 25.0 mg/kg/injection, schedule: Q01DX011 (ip), vehicle: carboxymethylcellulose (CMC)): 74 % of control
- T/C (dose: 25.0 mg/kg/injection, schedule: Q#A X022 (ip), vehicle: carboxymethylcellulose (CMC)): 69 % of control
- T/C (dose: 25.0 mg/kg/injection, schedule: Q#A X022 (oral), vehicle: carboxymethylcellulose (CMC)): 44 % of control
- T/C (dose: 45.0 mg/kg/injection, schedule: Q01DX011 (ip), vehicle: carboxymethylcellulose (CMC)): 34 % of control
- T/C [5]: 61 % of control
- T/C (dose: 50.0 mg/kg/injection, schedule: Q01DX011 (oral), vehicle: saline): 36 % of control
- T/C (dose: 50.0 mg/kg/injection, schedule: Q#A X022 (ip), vehicle: carboxymethylcellulose (CMC)): 22 % of control
- T/C (dose: 50.0 mg/kg/injection, schedule: Q#A X022 (oral), vehicle: carboxymethylcellulose (CMC)): 7 % of control
- T/C (dose: 75.0 mg/kg/injection, schedule: Q03DX004 (ip), vehicle: carboxymethylcellulose (CMC)): 101 % of control
- T/C (dose: 90.0 mg/kg/injection, schedule: Q01DX011 (ip), vehicle: carboxymethylcellulose (CMC)): 15 % of control
- T/C (dose: 100.0 mg/kg/injection, schedule: Q01DX011 (ip), vehicle: carboxymethylcellulose (CMC)): 42 % of control
- T/C (dose: 100.0 mg/kg/injection, schedule: Q01DX011 (oral), vehicle: carboxymethylcellulose (CMC)): 38 % of control
- T/C (dose: 100.0 mg/kg/injection, schedule: Q01DX011 (oral), vehicle: saline): 27 % of control
- T/C (dose: 100.0 mg/kg/injection, schedule: Q#A X022 (ip), vehicle: carboxymethylcellulose (CMC)): 15 % of control
- T/C (dose: 100.0 mg/kg/injection, schedule: Q#A X022 (oral), vehicle: carboxymethylcellulose (CMC)): 7 % of control
- T/C (dose: 150.0 mg/kg/injection, schedule: Q03DX004 (ip), vehicle: carboxymethylcellulose (CMC)): 46 % of control
- T/C (dose: 180.0 mg/kg/injection, schedule: Q01DX011 (ip), vehicle: carboxymethylcellulose (CMC)): 7 % of control
- T/C (dose: 180.0 mg/kg/injection, schedule: Q01DX011 (ip), vehicle: methylcellulose (MC)): 24 % of control
- T/C (dose: 200.0 mg/kg/injection, schedule: Q01DX011 (ip), vehicle: carboxymethylcellulose (CMC)): 13 % of control
- T/C (dose: 200.0 mg/kg/injection, schedule: Q01DX011 (oral), vehicle: carboxymethylcellulose (CMC)): 14 % of control
- T/C (dose: 200.0 mg/kg/injection, schedule: Q01DX011 (oral), vehicle: saline): 4 % of control
- T/C (dose: 300.0 mg/kg/injection, schedule: Q03DX004 (ip), vehicle: carboxymethylcellulose (CMC)): 24 % of control
- T/C (dose: 400.0 mg/kg/injection, schedule: Q01DX011 (oral), vehicle: carboxymethylcellulose (CMC)): 6 % of control
- T/C (dose: 400.0 mg/kg/injection, schedule: Q01DX011 (oral), vehicle: saline): 5 % of control
- T/C (dose: 600.0 mg/kg/injection, schedule: Q03DX004 (ip), vehicle: carboxymethylcellulose (CMC)): 16 % of control

SMILES: CCc1c(Cl)nc(N)nc1Nc1ccc(Br)cc1
- T/C [1]: 118 % of control
- T/C [2]: 105 % of control
- T/C [3]: 106 % of control
- T/C [4]: 116 % of control

SMILES: Cc1cnc(SCc2ccc(Cl)cc2Cl)nc1N(C)C
- T/C [2]: 55 % of control

SMILES: Cn1c(=O)c2c(nc(N/N=C/c3ccccc3C(=O)O)n2C)n(C)c1=O
- T/C (dose: 30.0 mg/kg/injection, schedule: Q01DX011 (ip), vehicle: carboxymethylcellulose (CMC)): 76 % of control
- T/C (dose: 60.0 mg/kg/injection, schedule: Q01DX011 (ip), vehicle: carboxymethylcellulose (CMC)): 69 % of control
- T/C (dose: 120.0 mg/kg/injection, schedule: Q01DX011 (ip), vehicle: carboxymethylcellulose (CMC)): 74 % of control
- T/C (dose: 240.0 mg/kg/injection, schedule: Q01DX011 (ip), vehicle: carboxymethylcellulose (CMC)): 62 % of control

— PubChem BioAssay AID180 (DTP/NCI, 2004)
